In PubChem BioAssay (NCI) one finds GI50 and TGI data, which are given here for 20 compounds.

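Briefly, cells in 96-well plates were exposed to five compound concentrations for 48 h, and endpoints were estimated by linear interpolation. GI50 is the concentration that inhibits growth by half. TGI is the concentration that stops growth completely.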

What all share (test): NCI tumour cell line growth inhibition, 48 h
In assay [1] the test system is 786-0 renal.
Assay [2] relates to LOX IMVI melanoma.
Assay [3] relates to BT-549 breast.
Assay [4] has as its system KM12 colon.
For assay [5], the system named is HOP-92 NSCLC.
Assay [6] relates to OVCAR-5 ovarian.
Assay [7] relates to CCRF-CEM leukemia.
In assay [8] the test system is HCT-116 colon.
Assay [9] relates to MOLT-4 leukemia.
Assay [10] has as its system RXF 393 renal.

`Cn1cc(-c2cc(-c3cn(C)c4ccc(Cl)cc34)[nH]n2)c2cc(Cl)ccc21`: the GI50 in [1] is 3.41 µM; in assay [2], 1.7 µM; in [3] it was 2.03 µM; in assay [4], 3.45 µM; in assay [5] it was 1.86 µM; in assay [6] it was 3.11 µM. In addition, the GI50 in [7] was 6.4 µM; in assay [8] it was 3.82 µM; in [9], 1.55 µM; in assay [10] it was 3.03 µM. Besides, the TGI in assay [1] was determined as 11.4 µM; in assay [2], 3.8 µM; in assay [3], 5.24 µM; in [4], 22.9 µM; in assay [5], 4.74 µM; in assay [6], 13 µM. The TGI in assay [7] is 23.8 µM; in assay [8], 15.8 µM; in [9], 11.8 µM; in [10], 16.2 µM.
With `COc1ccc2c(c1)CN([C@@H](C)[C@H]1CC[C@H]3[C@@H]4CC[C@H]5C[C@@H](O)CC[C@]5(C)[C@H]4CC[C@]13C)CO2`, the TGI in [1] turned out to be 2.7 µM; in assay [3], 14.4 µM; in [4], 4.31 µM; in assay [5] it was 3.71 µM; in assay [6], 13.5 µM; in [7] it was 6.19 µM. Besides, the TGI came out at 7.22 µM in assay [8], 2.98 µM in assay [9] and 2.74 µM in assay [10].
As to `CC(NC(=O)Cc1ccc(C(F)(F)P(=O)(OCc2ccc([N+](=O)[O-])o2)N(C)CCCCCl)cc1)c1ccc(OCC2CCCCC2)c(C(N)=O)c1` (stereo not drawn), the GI50 is 1.77 µM in assay [1]; 2.06 µM in assay [2]; 5.27 µM in assay [3]; 3.32 µM in assay [4]; 16.5 µM in assay [5]; 15.6 µM in [6]. Also, the GI50 in assay [8] was 1.93 µM; in assay [9] it was 2.19 µM; in assay [10], 4.36 µM. Also, the TGI in assay [1] was 3.97 µM; in [2] it was 5.87 µM; in assay [3] it was 13.5 µM; in [4] it was 10.2 µM; in [5] it was 37.2 µM; in [6], 33.1 µM. The TGI turned out to be 4.11 µM in assay [8], 7.06 µM in assay [9] and 9.97 µM in assay [10].
With `CC(C)(C)NCC(O)COc1c(Br)c(Br)c(Br)c2c1OC(C)(C)C2` (stereo not drawn), the GI50 is 1.58 µM in [1]; 1.68 µM in [2]; 1.69 µM in assay [3]; 1.82 µM in assay [4]; 1.52 µM in assay [5]; 1.97 µM in [7]. The GI50 in [9] is 1.59 µM; in [10], 2.14 µM. Also, the TGI in assay [1] is 3.21 µM; in assay [2], 3.1 µM; in assay [3], 3.11 µM; in [4], 3.4 µM; in [5] it was 3.17 µM; in [7], 3.76 µM. Further, the TGI in assay [9] was 3.16 µM; in assay [10], 3.83 µM.
On to `CCCC1(CN2c3ccccc3Sc3ccc(Cl)cc32)CCN(CC)C1` (stereo not drawn), for which the GI50 in assay [1] was 1.89 µM; in [2], 1.67 µM; in [3], 1.8 µM; in assay [4], 1.65 µM; in assay [6] it was 1.71 µM; in assay [7], 3.49 µM. For the same compound, the results for the GI50 in assay [8], in assay [9] and in assay [10] were 1.81 µM, 3.27 µM and 1.54 µM, respectively. Moreover, the TGI in assay [1] is 3.52 µM; in assay [2], 3.37 µM; in assay [3], 3.37 µM; in assay [4], 3.18 µM; in assay [6], 3.48 µM; in assay [7] it was more than 100 µM. Moreover, the figures for the TGI in [8], in assay [9] and in [10] were 3.29 µM, more than 100 µM and 2.94 µM, respectively.
Turning to `O=[N+]([O-])c1cc([As](Br)c2ccc(O)c([N+](=O)[O-])c2)ccc1O`, the TGI in assay [1] was 4.36 µM; in assay [2] it was 3.96 µM; in assay [3], 3.84 µM; in assay [4], 4.06 µM; in [5], 2.96 µM; in assay [6] it was 4.2 µM. In addition, the results for the TGI in assay [7], in assay [8] and in [10] were 0.436 µM, 5.54 µM and 3.22 µM, respectively.
Turning to `COc1ccc(C(=O)c2sc3nc(-c4ccccc4OC)ccc3c2N)cc1OC`, the GI50 was 11.7 µM in assay [1]; 3.14 µM in assay [3]; 9.67 µM in [4]; more than 100 µM in assay [6]; 4.07 µM in [7]; 5.55 µM in assay [8]. Besides, the GI50 in assay [10] was 3.42 µM. For the same compound, the TGI in assay [1] is more than 100 µM; in assay [3], 17 µM; in [4], more than 100 µM; in assay [6] it was more than 100 µM; in assay [7] it was more than 100 µM; in assay [8] it was more than 100 µM. Further, the TGI in assay [10] was 70 µM.
On to `CC(C)(C)[Si](C)(C)OC1[C@@H](CNC(N)=O)O[C@@H](n2cnc3c(NC(=O)Nc4ccccc4)ncnc32)[C@H]1O[Si](C)(C)C(C)(C)C` (stereo partly drawn), for which the GI50 in [1] is 2.22 µM; in [2] it was 0.856 µM; in assay [3], 2.47 µM; in assay [4], 1.09 µM; in assay [6], 6.65 µM; in assay [7], 1.06 µM. In addition, the GI50 in [8] is 0.78 µM; in assay [9] it was 1.06 µM; in assay [10], 1.95 µM. Moreover, the TGI in assay [1] was determined as 8.17 µM; in [2], 1.56 µM; in assay [3] it was 9.2 µM; in [4], 2.2 µM; in [6], 13.5 µM; in assay [7], 2.48 µM. The TGI in [8] stood at 1.45 µM; in assay [9], 2.24 µM; in assay [10], 7.02 µM.
Take `CO[C@H]1/C=C/O[C@@]2(C)Oc3c(C)c(O)c4c(O)c(c(/C=N/N5CCN(C)CC5)c(O)c4c3C2=O)NC(=O)/C(C)=C\C=C\[C@H](C)[C@H](O)[C@@H](C)[C@@H](O)[C@@H](C)[C@H](OC(C)=O)[C@@H]1C`: the TGI in assay [1] was more than 100 µM; in assay [3], more than 100 µM; in [4], more than 100 µM; in [6], more than 100 µM; in assay [7], 81.8 µM; in [8], more than 100 µM. Moreover, the TGI in assay [9] and in assay [10] was more than 100 µM in each case.
Consider `CC(/C=C/C(O)=C1/C(=O)CNC1=O)=C\[C@@H](C)[C@H]1O[C@@]2(C)O[C@H](C(=O)[C@@H]3O[C@@]32C)[C@@H]1C`, for which the TGI in assay [1] is 36.5 µM; in assay [2], 33.5 µM; in [3], 36.3 µM; in assay [4] it was 36.4 µM; in assay [6] it was 57.5 µM; in assay [7], more than 100 µM. The TGI in assay [8] amounted to 39 µM; in assay [9], 72.2 µM; in assay [10] it was 25.3 µM.
Consider `O=C(Nc1cccc2[nH]c(C(F)(F)F)nc12)c1cc(Cl)ccc1Cl`, for which the GI50 in assay [1] was 3.01 µM; in assay [2] it was 2.97 µM; in [3] it was 2.33 µM; in [4], 3.37 µM; in [5], 2.09 µM; in [6], 4.03 µM. Besides, the GI50 in assay [7] is 3.16 µM; in assay [8], 3.06 µM; in assay [9], 3 µM. Further, the TGI in assay [1] is 12.1 µM; in assay [2] it was 10 µM; in assay [3], 8.14 µM; in assay [4], 11.2 µM; in assay [5] it was 6.72 µM; in assay [6], more than 100 µM. In addition, the TGI in [7] worked out at 46.8 µM; in [8], 12.9 µM; in assay [9], 8.65 µM.
`C#CCN(N=O)C(=O)ON1C(=O)CCC1=O`: the TGI in assay [1], in [2], in assay [4], in [5], in assay [6] and in [7] was more than 100 µM in each case. The TGI in assay [8], in assay [9] and in assay [10] was more than 100 µM each time.
Regarding `COc1cc2c(c3c1c(=O)c1ccccc1n3C)C=CC(C)(C)O2`, the TGI in assay [1], in [2], in assay [4], in assay [5], in assay [6] and in assay [7] was more than 100 µM each time. The TGI was more than 100 µM in assay [8], more than 100 µM in assay [9] and 89 µM in assay [10].
For `COc1ccc(-c2cnnn2-c2nonc2-n2cccc2)cc1OC`, the GI50 is 7.15 µM in [1]; 4.06 µM in assay [3]; 2.73 µM in assay [4]; 17.8 µM in [6]; 3.3 µM in [7]; 4.19 µM in [8]. Moreover, the GI50 in [9] is 3.63 µM; in [10] it was 2.98 µM. The TGI in assay [1], in assay [3], in assay [4], in assay [6], in assay [7] and in assay [8] was more than 100 µM throughout. Also, the TGI in [9] is more than 100 µM; in [10] it was 40.2 µM.
`C=C1C(=O)C23[C@H](O)C1CC[C@H]2[C@]12COC3(O)[C@@H](O)[C@@H]1C(C)(C)CC[C@@H]2O`: the TGI in assay [1] is 24 µM; in assay [2], 33.3 µM; in assay [4], 31.4 µM; in assay [5], 10.1 µM; in [6], 32.7 µM; in assay [7], 95 µM. Besides, the TGI was 19.3 µM in assay [8], 33.1 µM in assay [9] and 10.9 µM in assay [10].
As for `COc1cc(C2=NN(C(C)=O)C(c3cc(OC)c(OC)c(OC)c3)C2)ccc1O` (stereo not drawn), the GI50 in assay [1] was 0.458 µM; in assay [2], 0.618 µM; in assay [3], 1.09 µM; in assay [4] it was 0.32 µM; in assay [5] it was 67 µM; in assay [6], 6.74 µM. Also, the GI50 is 0.342 µM in assay [7], 0.385 µM in assay [8] and 0.381 µM in assay [9]. Besides, the TGI in assay [1], in assay [2], in assay [3], in [4], in [5] and in assay [6] was more than 100 µM in each case. In addition, the TGI was more than 73.6 µM in assay [8] and more than 100 µM in assay [9].
As to `COc1cccc(CNc2ncnc3c2ncn3C2OC(CO)C(O)C2O)c1O` (stereo not drawn), the GI50 in [1] was 0.27 µM; in assay [2] it was 0.0616 µM; in [3], 0.0205 µM; in assay [4], 12.9 µM; in [6] it was 0.417 µM; in assay [8] it was 0.0659 µM. In addition, the GI50 in assay [9] was 0.353 µM; in assay [10], 0.0438 µM. Besides, the TGI is more than 100 µM in [1]; more than 100 µM in assay [2]; 0.0978 µM in [3]; more than 100 µM in [4]; more than 100 µM in assay [6]; more than 100 µM in [7]. The TGI in assay [9] was more than 44 µM; in [10], 0.36 µM.
Turning to `CN(C)c1ccc(/C=C(\NC(=O)c2ccccc2)c2nc3ccc4c(c3[nH]2)C(=O)c2ccccc2C4=O)cc1`, the TGI is more than 100 µM in assay [1]; more than 100 µM in [2]; more than 100 µM in [4]; 97.3 µM in assay [5]; more than 100 µM in assay [6]; more than 100 µM in assay [7]. Further, the figures for the TGI in [8], in assay [9] and in assay [10] were more than 100 µM, 31.3 µM and 93.8 µM, respectively.
Take `COc1ccc(/C=C(\NC(=O)c2ccccc2)c2nc3ccccc3[nH]2)cc1OC`: the TGI in assay [1], in [2], in assay [4], in [5], in [6] and in assay [7] was more than 100 µM in each case. The TGI in [8], in [9] and in [10] was more than 100 µM throughout.
`CC(=O)OC(C(=O)[O][Sn]([CH3])([CH3])[CH3])c1ccccc1` (stereo not drawn): the GI50 in [1] was more than 100 µM; in assay [2] it was more than 100 µM; in [4], more than 100 µM; in assay [5], more than 100 µM; in assay [6] it was more than 100 µM; in [7] it was 63.4 µM. The GI50 in assay [8] and in assay [9] was more than 100 µM in each case. Besides, the TGI in assay [1], in [2], in [4], in assay [5], in assay [6] and in [7] was more than 100 µM throughout. The TGI is more than 100 µM in assay [8], more than 100 µM in assay [9] and 0.959 µM in assay [10].
